The source of these data is paper PMC8252737 (Angewandte Chemie (International Ed. in English), 2021).

Assay [1] has as its target T1, EV D68 3C protease (Enterovirus D68, UniProt A1E4A3).
T1 sequence (A1E4A3 1549-1731): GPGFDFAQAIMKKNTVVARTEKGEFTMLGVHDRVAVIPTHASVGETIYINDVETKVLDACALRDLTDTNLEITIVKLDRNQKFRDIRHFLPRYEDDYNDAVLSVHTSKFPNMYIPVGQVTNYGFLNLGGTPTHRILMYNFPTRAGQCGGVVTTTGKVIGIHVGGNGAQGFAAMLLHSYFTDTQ
As to the kind of experiment: Tryptic digest and MS of protein-inhibitor complex. It is filed as binding. The conditions noted are these: trypsin digest of protein-inhibitor complex.

Assay [2] deals with T1, EV D68 3C protease. As to the kind of experiment: Fragment ligation screening / FRET assay of fragments and aldehyde 1. It counts as biochemical. The conditions noted are these: fragment 19 μM + aldehyde 1 19 μM, 2 h incubation, p<0.05.

Turning to `CCOC(=O)C=Cc1cccc(C(N)=O)c1` [Compound 13, O‐ethyl 3‐carbamoyl‐cinnamoyl ester], in assay [1], the “Alkylation of the 13mer peptide containing Cys147” value is on record as “complete alkylation”.

Take `CCOC(=O)CC#N` [Compound F1, O‐ethyl 2‐cyano‐acetate]: the “Inhibition of the protease in combination with aldehyde 1 compared to the aldehyde alone” value in assay [2] is “significantly increased inhibition”.

For the compound `CC(=O)CC#N` [Compound F4, 3‐oxo‐butane nitrile], in assay [2], the “Inhibition of the protease in combination with aldehyde 1 compared to the aldehyde alone” value was “significantly increased inhibition”.
